Laboratory results: article PMC6609541, “Enterohepatic circulation of glucuronide metabolites of drugs in dog” (Pharmacology Research & Perspectives, 2019)
Where “and” joins values, the source holds several entries; their conditions need not be identical. Identical values can stand only once. Like-named read-outs stand apart in the source and are kept apart here. Marks after values point to notes of the source that are not given here.

Legend:
[1] = tested on: cryopreserved human hepatocytes; test: Hepatocyte metabolite profile with and without ABT (human); type: in vitro ADME; conditions: 4 h, 2 μmol/L
Procedure: Cryopreserved dog and human hepatocytes were obtained from BioreclamationIVT (Baltimore, MD). […] A stock solution of canagliflozin and DTPQ was added to medium to give a final incubation concentration of 2 μmol/L. The incubations including the media and cells were quenched after 4 hours with an equal volume of acetonitrile containing 200 ng/mL niflumic acid as internal standard. Samples were centrifuged at 3500 g for 10 minutes and the supernatant was analyzed by liquid chromatography coupled to a diode array UV detection and mass spectrometry system consisting of the Acquity ultra‐performance liquid chromatography column, Synapt G2‐S mass spectrometer, and an ultra‐performance liquid chromatography photodiode array detector (Waters, Milford, MA). The chromatographic separation of metabolites was achieved on a Waters 1.7‐μm Acquity BEH C18 (100 × 2.1 mm) column maintained at 60°C. The mobile phase consisted of solvent A (0.2% formic acid in water for DPTQ and 10 mmol/L ammonium acetate in water for canagliflozin) and solvent B (100% acetonitrile). The samples were eluted, at a flow rate of 0.5 mL/min with a gradient for 5 minutes. The LC/MS full scan data were processed by Metabolynx (Waters, Milford, MA) to identify metabolites. Product ion spectra were acquired to confirm the metabolites. The mass spectrometer was operated in positive ion mode with an electrospray ionization source. The parameters for the chamber were: capillary 1.0 kV, sample cone 50 V, source temperature 120°C, desolvation 500°C, and collision energy 25 V. The peak areas for parent, metabolite and internal standard were integrated to allow for comparison between conditions.

[2] = Recovery of parent drug and glucuronide metabolites in urine, bile and feces of BDC and intact dogs; type: in vivo, beagle dog; conditions: for % dose in feces, Parent / % dose in bile, Parent / % dose in urine, Parent / renal excretion of parent drug: 0.5 mg/kg IV; for % dose in feces, Parent / % dose in bile, Parent / % dose in urine, Parent: over 48 hours; for % dose in bile, Parent: 0.5 mg/kg; for renal excretion of parent drug: dog (BDC and intact); for Biliary excretion % of glucuronide / Urinary excretion % of glucuronide: dog; for Biliary excretion % of glucuronide: BDC; for Urinary excretion % of glucuronide: BDC and/or intact
Procedure: Canagliflozin and DPTQ, both at 0.5 mg/kg, were administered intravenously in 25 mmol/L phosphate buffer (pH 8) containing 10% dimethylacetamide (v/v), 15% ethanol (v/v) via a cephalic vein. Total volume administered was 1 mL/kg. Dogs were housed in stainless steel metabolic cages during the study. Serial blood samples were collected from the jugular vein at 0.08, 0.25, 0.5, 1, 2, 4, 8, 12, 24, 36 and 48‐hours post‐dose with collection tubes containing anticoagulant K3‐EDTA. Plasma was obtained by centrifugation at 1600g for 10 minutes. Cumulative urine samples were collected between 0‐12, 12‐24, 24‐36 and 36‐48 hours and feces were collected between 0‐24 and 24‐48 hours in both intact and BDC dogs. Bile samples were collected between 0‐12, 12‐24, 24‐36, 36‐48 hours in BDC dogs. The weights of all samples except blood and plasma were recorded. All the samples were stored at −70°C until analysis by liquid chromatography tandem‐mass spectrometry (LC‐MS/MS) was performed.
Aliquots of plasma, urine, bile or feces homogenate (50 µL) were incubated with equal volume of 0.2 mol/L sodium acetate buffer (pH 5.0), and 15 μL of β‐glucuronidase (>85 000 units/mL) in a 37°C water bath overnight. The samples were extracted for LC‐MS/MS after the hydrolysis was performed. […] The concentration of O‐glucuronides was determined by subtracting the concentration from the aliquot without treatment of β‐glucuronidase from the one with enzyme treatment.
Canagliflozin and DPTQ in plasma, bile, urine and feces were quantified using LC‐MS/MS. All samples plasma, urine and bile) were mixed with an organic internal standard solution essentially described previously,15 to precipitate protein and centrifuged, and the resulting supernatants were analyzed using AB Sciex API 4000 quadrupole mass spectrometer (Applied Biosystems, Foster City, CA) equipped with a TurboIonSpray interface. The feces samples were homogenized in MeOH:H2O (1:1) and shaken vigorously to obtain slurry. The homogenates then went through the sample extraction along with other matrices. The blank plasma, urine, bile and feces was spiked with internal standard for calibration curve. The pumps were Shimadzu LC‐10AD units with a SCL‐10A controller (Kyoto, Japan), and a Z‐215 liquid handler (Gilson, Middleton, WI) was used as the autosampler. All compounds were chromatographically separated using a Betasil javelin C18 20 × 2.1‐mm 5‐μm HPLC column (Thermo Fisher Scientific, Waltham, MA). The mobile phase consisted of solvent A (1 mmol/L ammonium bicarbonate in water) and solvent B (1 mmol/L ammonium bicarbonate in methanol). Drugs and metabolites were detected in positive ion mode, using selected ion mode: canagliflozin 462.2 → 191.1 m/z, DPTQ 436.2 → 158.9 m/z, and DPTQ‐O‐glucuronide 612.2 → 418.1.

[3] = Hepatocyte intrinsic clearance with and without ABT (dog); type: in vitro ADME; conditions: cryopreserved dog hepatocytes, dog hepatocytes, 0.3 µmol/L compound
Procedure: (§1) The intrinsic clearance was determined in cryopreserved dog and human hepatocytes essentially as described previously.4 The assay incubation contained 0.3 µmol/L compound and hepatocytes at a concentration of 10^6 cells/mL, with and without 30 minutes pre‐incubation of 1 mmol/L ABT. Intrinsic clearance measurement was initiated by the addition of compound and the incubation quenched at 0.6, 15, 30, 60 and 90 minutes for DPTQ, and at 0.6, 15, 30, 60, 120 and 240 minutes by addition of acetonitrile with 0.1% formic acid. Samples were centrifuged at 3500 g for 10 minutes and the supernatant was analyzed to quantify parent compound loss and the intrinsic clearance values (μL/min/10^6 cells) were calculated using following equation for incubations with and without ABT. CLint=-kdep×incubation volume/10^6cells
(§2) In which the depletion rate constant (k dep) is the slope determined using linear regression from the log transformed percentage remaining on the y‐axis vs time on the x‐axis (min^− ^1). The fraction of metabolism (fm) by P450 was determined by the measurement of the percentage of inhibition of Clint by ABT.

[4] = tested on: cryopreserved dog hepatocytes; test: as above; type: in vitro ADME; conditions: for percentage of the metabolism not inhibited by ABT / % of inhibition by ABT: dog hepatocytes; for % of inhibition by ABT: inhibition of Clint by 1 mmol/L ABT (fm by P450); for Hepatic fm by UGT: dog, in hepatocytes
Procedure: as §1, §2

[5] = with 1 mmol/L ABT, 30 minutes pre-incubation, 1 mmol/L ABT pre‐incubation 30 minutes, read-out: Clint with ABT
[6] = 10^6 cells/mL, read-out: Clint without ABT

| Structure (SMILES) | Peak area (+ABT) [1] | Peak area (‐ABT) [1] | % dose in feces, Parent ([2]; BDC dog) [% dose] | % dose in bile, Parent ([2]; BDC dog) | % dose in urine, Parent ([2]; BDC dog, ND = below quantitative limit 1 ng/mL) [% dose] | % dose in bile, Parent ([2]; BDC dog, listed as canagliflozin) [% dose] | renal excretion of parent drug [2] | Biliary excretion % of glucuronide [2] | Urinary excretion % of glucuronide [2] | % dose in feces, Parent ([2]; intact dog) | % dose in urine, Parent ([2]; intact dog) [% dose] | hepatocyte CLint at 0.3 µmol/L [3, 5] [µL/min/1e6 cells] | hepatocyte CLint at 0.3 µmol/L [3, 6] [µL/min/1e6 cells] | percentage of the metabolism not inhibited by ABT [4] [%] | % of inhibition by ABT [4] | % of inhibition by ABT ([4]; listed as canagliflozin) [%] | Hepatic fm by UGT [4] |
| --- | --- | --- | --- | --- | --- | --- | --- | --- | --- | --- | --- | --- | --- | --- | --- | --- | --- |
| Cc1ccc([C@@H]2O[C@H](CO)[C@@H](O)[C@H](O)[C@H]2O)cc1Cc1ccc(-c2ccc(F)cc2)s1 [Canagliflozin] | 2019 | 3414 | 3.3 ± 0.7 | 4.66 ± 1.4 % dose | 0.05 ± 0.08 | 4.66 | < 1 % of dose | Low (Low 0%‐30%) | Low (Low 0%‐30%) | 2.25 ± 1.3 % dose | 0.27 ± 0.15 | 6 ± 3.3 | 6.5 ± 3.6 | 87.3 | 12.7 ± 14.1% | 12.7 | Low (Low 0%‐30%) |
| C[C@H]1c2cccc(CC(C)(C)O)c2C[C@H](CO)N1C(=O)Cc1c(Cl)cccc1Cl [DPTQ, 2‐(2,6‐dichlorophenyl)‐1‐((1S,3R)‐5‐(2‐hydroxy‐2‐methylpropyl)‐3‐(hydroxymethyl)‐1‐methyl‐3,4‐dihydroisoquinolin‐2(1H)‐yl)ethan‐1‐one] | 2364 | 2810 | 2.48 ± 4.8 | 8.91 % dose and 8.91 ± 8.9 % dose | – | – | < 1 % of dose | Moderate (moderate 30%‐70%) | Low (Low 0%‐30%) | 13.5 ± 5.8 ^a % dose | 0.64 ± 1.1 | 18.3 ± 5.9 | 38.6 ± 8.5 | 53.5 | 46.5% and 46.5 ± 6.6% | – | Moderate (moderate 30%‐70%) |
